These are literature values, as cited in patent US10154669B2, “Improving color and release profile of resin compositions comprising silver nanoparticles” (The Board of Regents of the University of Texas System, priority 2013, dated 2018).

The conditions of this data set: in water.

As for `C=C(C)C(=O)OC` [methyl methacrylate], the water solubility entry was “about 1.6 g in 100 g of water”.
